Measured values from ChEMBL document CHEMBL3400015, “Tertiary amides of Salinomycin: A new group of antibacterial agents against Bacillus anthracis and methicillin-resistant Staphylococcus epidermidis” (Bioorg Med Chem Lett, 2015).
≈ marks a conversion by molar mass, not a printed value.

What was measured:
Format in all cases: functional
[1] = tested on: Staphylococcus aureus; assay: Antimicrobial activity against Staphylococcus aureus ATCC 25923 after 18 hrs by twofold serial broth dilution method; conditions: ATCC 25923, 18 h
[2] = tested on: Staphylococcus aureus; assay: Antimicrobial activity against Staphylococcus aureus ATCC 6538 after 18 hrs by twofold serial broth dilution method; conditions: ATCC 6538, 18 h
[3] = tested on: Staphylococcus aureus; assay: Antimicrobial activity against Staphylococcus aureus […] after 18 hrs by twofold serial broth dilution method
[4] = tested on: Escherichia coli; assay: Antimicrobial activity against Escherichia coli NCTC 8196 after 18 hrs by twofold serial broth dilution method; conditions: NCTC 8196, 18 h
[5] = tested on: Pseudomonas aeruginosa; assay: Antimicrobial activity against Pseudomonas aeruginosa NCTC 6749 after 18 hrs by twofold serial broth dilution method; conditions: NCTC 6749, 18 h
[6] = tested on: Staphylococcus epidermidis; assay: Bactericidal activity against Staphylococcus epidermidis ATCC 35984 after 24 hrs; conditions: ATCC 35984, 24 h, read-out: MBC99.9
[7] = tested on: Pseudomonas aeruginosa; assay: Bactericidal activity against Pseudomonas aeruginosa ATCC 15442 after 24 hrs; conditions: ATCC 15442, 24 h, read-out: MBC99.9
[8] = tested on: Staphylococcus epidermidis; assay: Antimicrobial activity against methicillin-resistant Staphylococcus epidermidis isolate 405/10 after 18 hrs by twofold serial broth dilution method; conditions: isolate 405/10, 18 h
[9] = tested on: Staphylococcus epidermidis; assay: Antimicrobial activity against methicillin-resistant Staphylococcus epidermidis isolate 422/10 after 18 hrs by twofold serial broth dilution method; conditions: isolate 422/10, 18 h
[10] = tested on: Staphylococcus epidermidis; assay: Antimicrobial activity against methicillin-resistant Staphylococcus epidermidis isolate 424/10 after 18 hrs by twofold serial broth dilution method; conditions: isolate 424/10, 18 h
[11] = tested on: Staphylococcus epidermidis; assay: Antimicrobial activity against methicillin-resistant Staphylococcus epidermidis isolate 454/11 after 18 hrs by twofold serial broth dilution method; conditions: isolate 454/11, 18 h
[12] = tested on: Staphylococcus epidermidis; assay: Antimicrobial activity against methicillin-resistant Staphylococcus epidermidis isolate 455/11 after 18 hrs by twofold serial broth dilution method; conditions: isolate 455/11, 18 h
[13] = tested on: Staphylococcus epidermidis; assay: Antimicrobial activity against methicillin-resistant Staphylococcus epidermidis isolate 457/11 after 18 hrs by twofold serial broth dilution method; conditions: isolate 457/11, 18 h
[14] = tested on: Staphylococcus epidermidis; assay: Bactericidal activity against methicillin-resistant Staphylococcus epidermidis isolate 458/11 after 24 hrs; conditions: isolate 458/11, 24 h, read-out: MBC99.9
[15] = tested on: Staphylococcus epidermidis; assay: Bactericidal activity against methicillin-resistant Staphylococcus epidermidis isolate 469/11 after 24 hrs; conditions: isolate 469/11, 24 h, read-out: MBC99.9
[16] = tested on: Staphylococcus epidermidis; assay: Bactericidal activity against methicillin-resistant Staphylococcus epidermidis isolate 470/11 after 24 hrs; conditions: isolate 470/11, 24 h, read-out: MBC99.9
[17] = tested on: Staphylococcus epidermidis; assay: Ratio of ciprofloxacin MIC to compound MIC for methicillin-resistant Staphylococcus epidermidis clinical isolate after 18 hrs by twofold serial broth dilution method

## CC[C@@H](C(=O)[C@@H](C)[C@@H](O)[C@H](C)[C@@H]1O[C@@H]([C@@H](CC)C(=O)N2CCNCC2)CC[C@@H]1C)[C@H]1O[C@]2(C=C[C@@H](O)[C@]3(CC[C@@](C)([C@H]4CC[C@](O)(CC)[C@H](C)O4)O3)O2)[C@H](C)C[C@@H]1C
[1]
  MIC: 128 µg/mL (≈ 156 µM)
[2]
  MIC: 64 µg/mL (≈ 78.1 µM)
[3]
  MIC: 128 µg/mL (≈ 156 µM)
[4]
  MIC: > 256 µg/mL
[5]
  MIC: > 256 µg/mL
[6]
  MBC: > 256 µg/mL
[7]
  MBC: > 256 µg/mL
[8]
  MIC: 64 µg/mL (≈ 78.1 µM)
[9]
  MIC: 128 µg/mL (≈ 156 µM)
[10]
  MIC: 64 µg/mL (≈ 78.1 µM)
[11]
  MIC: 128 µg/mL (≈ 156 µM)
[12]
  MIC: 256 µg/mL (≈ 313 µM)
[13]
  MIC: 256 µg/mL (≈ 313 µM)
[14]
  MBC: > 256 µg/mL
[15]
  MBC: > 256 µg/mL
[16]
  MBC: > 256 µg/mL

## CCCCCCCCN(CCCCCCCC)C(=O)[C@H](CC)[C@H]1CC[C@H](C)[C@H]([C@@H](C)[C@H](O)[C@H](C)C(=O)[C@H](CC)[C@H]2O[C@]3(C=C[C@@H](O)[C@]4(CC[C@@](C)([C@H]5CC[C@](O)(CC)[C@H](C)O5)O4)O3)[C@H](C)C[C@@H]2C)O1
[1]
  MIC: 128 µg/mL (≈ 131 µM)
[2]
  MIC: 128 µg/mL (≈ 131 µM)
[3]
  MIC: 256 µg/mL (≈ 263 µM)
[4]
  MIC: > 256 µg/mL
[5]
  MIC: > 256 µg/mL
[6]
  MBC: > 256 µg/mL
[7]
  MBC: > 256 µg/mL
[8]
  MIC: > 256 µg/mL
[9]
  MIC: 256 µg/mL (≈ 263 µM)
[10]
  MIC: > 256 µg/mL
[11]
  MIC: > 256 µg/mL
[12]
  MIC: > 256 µg/mL
[13]
  MIC: 256 µg/mL (≈ 263 µM)
[14]
  MBC: > 256 µg/mL
[15]
  MBC: > 256 µg/mL
[16]
  MBC: > 256 µg/mL

## CC[C@@H](C(=O)[C@@H](C)[C@@H](O)[C@H](C)[C@@H]1O[C@@H]([C@@H](CC)C(=O)N(CC)CC)CC[C@@H]1C)[C@H]1O[C@]2(C=C[C@@H](O)[C@]3(CC[C@@](C)([C@H]4CC[C@](O)(CC)[C@H](C)O4)O3)O2)[C@H](C)C[C@@H]1C
[1]
  MIC: 2 µg/mL (≈ 2.48 µM)
[2]
  MIC: 2 µg/mL (≈ 2.48 µM)
[3]
  MIC: 4 µg/mL (≈ 4.96 µM)
[4]
  MIC: > 256 µg/mL
[5]
  MIC: > 256 µg/mL
[6]
  MBC: 128 µg/mL (≈ 159 µM)
[7]
  MBC: > 256 µg/mL
[8]
  MIC: 8 µg/mL (≈ 9.92 µM)
[9]
  MIC: 8 µg/mL (≈ 9.92 µM)
[10]
  MIC: 8 µg/mL (≈ 9.92 µM)
[11]
  MIC: 4 µg/mL (≈ 4.96 µM)
[12]
  MIC: 8 µg/mL (≈ 9.92 µM)
[13]
  MIC: 4 µg/mL (≈ 4.96 µM)
[14]
  MBC: 128 µg/mL (≈ 159 µM)
[15]
  MBC: 256 µg/mL (≈ 318 µM)
[16]
  MBC: 128 µg/mL (≈ 159 µM)
[17]
  Ratio: 40

## CC[C@@H](C(=O)[C@@H](C)[C@@H](O)[C@H](C)[C@@H]1O[C@@H]([C@@H](CC)C(=O)N(CCOC)CCOC)CC[C@@H]1C)[C@H]1O[C@]2(C=C[C@@H](O)[C@]3(CC[C@@](C)([C@H]4CC[C@](O)(CC)[C@H](C)O4)O3)O2)[C@H](C)C[C@@H]1C
[1]
  MIC: 64 µg/mL (≈ 73.9 µM)
[2]
  MIC: 64 µg/mL (≈ 73.9 µM)
[3]
  MIC: 128 µg/mL (≈ 148 µM)
[4]
  MIC: > 256 µg/mL
[5]
  MIC: > 256 µg/mL
[6]
  MBC: > 256 µg/mL
[7]
  MBC: > 256 µg/mL
[8]
  MIC: 256 µg/mL (≈ 296 µM)
[9]
  MIC: 128 µg/mL (≈ 148 µM)
[10]
  MIC: 256 µg/mL (≈ 296 µM)
[11]
  MIC: 64 µg/mL (≈ 73.9 µM)
[12]
  MIC: 128 µg/mL (≈ 148 µM)
[13]
  MIC: 128 µg/mL (≈ 148 µM)
[14]
  MBC: > 256 µg/mL
[15]
  MBC: > 256 µg/mL
[16]
  MBC: > 256 µg/mL

## CC[C@@H](C(=O)[C@@H](C)[C@@H](O)[C@H](C)[C@@H]1O[C@@H]([C@@H](CC)C(=O)N2CCOCC2)CC[C@@H]1C)[C@H]1O[C@]2(C=C[C@@H](O)[C@]3(CC[C@@](C)([C@H]4CC[C@](O)(CC)[C@H](C)O4)O3)O2)[C@H](C)C[C@@H]1C
[1]
  MIC: 128 µg/mL (≈ 156 µM)
[2]
  MIC: 128 µg/mL (≈ 156 µM)
[3]
  MIC: 256 µg/mL (≈ 312 µM)
[4]
  MIC: 256 µg/mL (≈ 312 µM)
[5]
  MIC: 128 µg/mL (≈ 156 µM)
[6]
  MBC: > 256 µg/mL
[7]
  MBC: > 256 µg/mL
[8]
  MIC: 256 µg/mL (≈ 312 µM)
[9]
  MIC: 256 µg/mL (≈ 312 µM)
[10]
  MIC: 256 µg/mL (≈ 312 µM)
[11]
  MIC: 128 µg/mL (≈ 156 µM)
[12]
  MIC: 256 µg/mL (≈ 312 µM)
[13]
  MIC: 256 µg/mL (≈ 312 µM)
[14]
  MBC: > 256 µg/mL
[15]
  MBC: > 256 µg/mL
[16]
  MBC: > 256 µg/mL
